Common to all, as to format: cell-based
The test system of assay [1] is S. aureus (UAMS-1625 strain). Kind of assay: MIC by broth microdilution against S. aureus. The settings on record: Staphylococcus aureus, read-out: MIC S. aureus. On the technique in general: Broth dilution looks for growth in wells or tubes with falling amounts of substance.
Assay [2] deals with A. baumannii (HUMC1 strain). In words: MIC by broth microdilution against A. baumannii in RPMI + 10% FCS. The settings on record: Acinetobacter baumannii, read-out: MIC A. baumannii.
Assay [3] concerns M. abscessus subsp. abscessus ATCC 19977. In words: MIC against M. abscessus in Middlebrook 7H9 + ADC. The settings on record: Mycobacteroides abscessus.
The test system of the next assay is M. kansasii (ATCC 12478). Kind of assay: MIC against M. kansasii in CAMHB + ADC. The settings on record: Mycobacterium kansasii.
The test system of another assay is M. xenopi (ATCC 19250). Kind of assay: MIC against M. xenopi in CAMHB + ADC. The settings on record: Mycobacterium xenopi.
The subject of a further assay is M. avium (ATCC 25291). In words: MIC against M. avium in CAMHB + ADC. The settings on record: Mycobacterium avium.
Where [4] appears, read: ATCC19977, ATCC 19977, 7H9 + ADC, read-out: MIC M. abscessus.
[5] abbreviates: ATCC12478, ATCC 12478, CAMHB + ADC (5%), read-out: MIC M. kansasii.
Where [6] appears, read: ATCC19250, ATCC 19250, CAMHB + ADC (5%), read-out: MIC M. xenopi.
Where [7] appears, read: ATCC25291, ATCC 25291, CAMHB + ADC (5%), read-out: MIC M. avium.
Where [8] appears, read: ATCC19977, read-out: MIC M. abscessus.
[9] abbreviates: ATCC12478, read-out: MIC M. kansasii.

From patent publication US20250051356A1, “RIFABUTIN ANALOGS FOR THE TREATMENT OF DISEASE” (priority 2021, published 2025) come the findings set out here.

In brackets after ≈: the same amount, converted by molar mass. Read-outs that look alike come from different tables or passages of the source. Where only a bound is given, the exact number is not on record here.

Regarding `CO[C@H]1/C=C/O[C@@]2(C)Oc3c(C)c(O)c4c(c3C2=O)C2=NC3(CCN(CC(C)C)CC3)NC2=C(NC(=O)/C(C)=C\C=C\[C@H](C)[C@H](O)[C@@H](C)[C@@H](O)[C@@H](C)[C@H](OC(=O)CC(=O)N2CCC(C(=O)c3ccccc3)CC2)[C@@H]1C)C4=O` [Compound 55], the MIC (usually the smallest concentration in the dilution series that meets the test's criterion for growth inhibition) in assay [1] amounted to 0.5 µg/mL (≈ 0.471 µM); in assay [2] (HUMC1 strain, RPMI + 10% FCS), 0.016 µg/mL; in assay [3] (setting [4]), 0.25 µg/mL; with M. kansasii (ATCC 12478) (setting [5]), 0.016 µg/mL; in the assay with M. xenopi (ATCC 19250) (setting [6]), 0.06 µg/mL; in the assay with M. avium (ATCC 25291) (setting [7]), 1 µg/mL.

As to `CO[C@H]1/C=C/O[C@@]2(C)Oc3c(C)c(O)c4c(c3C2=O)C2=NC3(CCN(CC(C)C)CC3)NC2=C(NC(=O)/C(C)=C\C=C\[C@H](C)[C@H](O)[C@@H](C)[C@@H](O)[C@@H](C)[C@H](OC(=O)CC(=O)N2CCC(CCc3ccccc3)CC2)[C@@H]1C)C4=O` [Compound 56], the minimal inhibitory concentration (MIC) in assay [1] came out at 2 µg/mL (≈ 1.88 µM); in assay [2] (HUMC1 strain, RPMI + 10% FCS) it was 0.03 µg/mL; in assay [3] (setting [4]) it was 0.25 µg/mL; with M. kansasii (ATCC 12478) (setting [5]) it was 0.03 µg/mL; in the assay on M. xenopi (ATCC 19250) (setting [6]), 0.06 µg/mL; in the assay on M. avium (ATCC 25291) (setting [7]) it was 0.5 µg/mL.

On to `CO[C@H]1/C=C/O[C@@]2(C)Oc3c(C)c(O)c4c(c3C2=O)C2=NC3(CCN(CC(C)C)CC3)NC2=C(NC(=O)/C(C)=C\C=C\[C@H](C)[C@H](O)[C@@H](C)[C@@H](O)[C@@H](C)[C@H](OC(=O)CC(=O)N2CCC(Oc3ccccc3)CC2)[C@@H]1C)C4=O` [Compound 57], for which the MIC in assay [1] stood at 0.5 µg/mL (≈ 0.476 µM); in assay [2], 0.03 µg/mL; in assay [3] (setting [8]) it was 0.125 µg/mL; with M. kansasii (ATCC 12478) (setting [9]), 0.008 µg/mL; in the assay on M. xenopi (ATCC 19250) (ATCC19250, read-out: MIC M. xenopi) it was 0.03 µg/mL; in the assay with M. avium (ATCC 25291) (ATCC25291, read-out: MIC M. avium), 0.125 µg/mL.

For the molecule `CO[C@H]1/C=C/O[C@@]2(C)Oc3c(C)c(O)c4c(c3C2=O)C2=NC3(CCN(CC(C)C)CC3)NC2=C(NC(=O)/C(C)=C\C=C\[C@H](C)[C@H](O)[C@@H](C)[C@@H](O)[C@@H](C)[C@H](OC(=O)CC(=O)N2CCCN(c3ccc(F)cc3)CC2)[C@@H]1C)C4=O` [Compound 66], the MIC was 0.125 µg/mL (≈ 0.117 µM) in assay [1]; 0.016 µg/mL in assay [2] (HUMC1 strain, RPMI + 10% FCS); 0.125 µg/mL in assay [3] (setting [8]); 0.016 µg/mL with M. kansasii (ATCC 12478) (setting [5]); 0.06 µg/mL in the assay on M. xenopi (ATCC 19250) (setting [6]); 0.125 µg/mL in the assay with M. avium (ATCC 25291) (setting [7]).

On to `CO[C@H]1/C=C/O[C@@]2(C)Oc3c(C)c(O)c4c(c3C2=O)C2=NC3(CCN(CC(C)C)CC3)NC2=C(NC(=O)/C(C)=C\C=C\[C@H](C)[C@H](O)[C@@H](C)[C@@H](O)[C@@H](C)[C@H](OC(=O)CC(=O)N2CCC(OC3CCC(C)CC3)CC2)[C@@H]1C)C4=O` (some centres unmarked) [Compound 67], for which the MIC in assay [1] was determined as 0.25 µg/mL (≈ 0.234 µM); in assay [2] (HUMC1 strain, RPMI + 10% FCS) it was 0.008 µg/mL; in assay [3] (setting [4]), 0.125 µg/mL; with M. kansasii (ATCC 12478) (setting [5]), 0.008 µg/mL; in the assay on M. xenopi (ATCC 19250) (setting [6]), 0.125 µg/mL; with M. avium (ATCC 25291) (setting [7]), 0.25 µg/mL.

For `CO[C@H]1/C=C/O[C@@]2(C)Oc3c(C)c(O)c4c(c3C2=O)C2=NC3(CCN(CC(C)C)CC3)NC2=C(NC(=O)/C(C)=C\C=C\[C@H](C)[C@H](O)[C@@H](C)[C@@H](O)[C@@H](C)[C@H](OC(=O)CC(=O)N2CCC3C(CCCN3Cc3ccccc3)C2)[C@@H]1C)C4=O` (some centres unmarked) [Compound 68], the minimal inhibitory concentration (MIC) in assay [1] was determined as 0.5 µg/mL (≈ 0.453 µM); in assay [2] (HUMC1 strain, RPMI + 10% FCS), 0.03 µg/mL; in assay [3] (setting [4]), 0.25 µg/mL; in the assay on M. kansasii (ATCC 12478) (setting [5]), 0.001 µg/mL; with M. xenopi (ATCC 19250) (setting [6]) it was 0.125 µg/mL; with M. avium (ATCC 25291) (setting [7]), 0.03 µg/mL.

In the case of `CCC(C(=O)O[C@H]1[C@H](C)[C@H](O)[C@H](C)[C@@H](O)[C@@H](C)/C=C/C=C(/C)C(=O)NC2=C3NC4(CCN(CC(C)C)CC4)N=C3c3c(c(O)c(C)c4c3C(=O)[C@@](C)(O/C=C/[C@H](OC)[C@H]1C)O4)C2=O)C(=O)N1CCCN(c2ccc(F)cc2)CC1` (some centres unmarked) [Compound 79], the MIC turned out to be 0.5 µg/mL (≈ 0.456 µM) in assay [1]; 0.03 µg/mL in assay [2] (HUMC1 strain, RPMI + 10% FCS); 0.125 µg/mL in assay [3] (setting [4]); 0.004 µg/mL in the assay with M. kansasii (ATCC 12478) (setting [5]); 0.03 µg/mL in the assay with M. xenopi (ATCC 19250) (setting [6]); 0.125 µg/mL with M. avium (ATCC 25291) (setting [7]).

Regarding `CO[C@H]1/C=C/O[C@@]2(C)Oc3c(C)c(O)c4c(c3C2=O)C2=NC3(CCN(CC(C)C)CC3)NC2=C(NC(=O)/C(C)=C\C=C\[C@H](C)[C@H](O)[C@@H](C)[C@@H](O)[C@@H](C)[C@H](OC(=O)CC(=O)N2CCN(CCN3CCOCC3)CC2)[C@@H]1C)C4=O` [Compound 115], the MIC in assay [1] was 0.06 µg/mL (≈ 0.056 µM); in assay [2] (HUMC1 strain, RPMI + 10% FCS), at most 0.002 µg/mL; in assay [3] (setting [4]), 0.5 µg/mL.

As to `CO[C@H]1/C=C/O[C@@]2(C)Oc3c(C)c(O)c4c(c3C2=O)C2=NC3(CCN(CC(C)C)CC3)NC2=C(NC(=O)/C(C)=C\C=C\[C@H](C)[C@H](O)[C@@H](C)[C@@H](O)[C@@H](C)[C@H](OC(=O)CC(=O)N2CCCN(c3ccncc3)CC2)[C@@H]1C)C4=O` [Compound 121], the MIC in assay [1] was 0.125 µg/mL (≈ 0.119 µM); in assay [2] (HUMC1 strain, RPMI + 10% FCS) it was at most 0.002 µg/mL; in assay [3] (setting [4]) it was 0.25 µg/mL; with M. kansasii (ATCC 12478) (setting [9]), 0.125 µg/mL; in the assay with M. avium (ATCC 25291) (setting [7]), 2 µg/mL.
